Where only a bound is given, the exact number is not on record here.

The first assay deals with T1, full length AKT E17K (Homo sapiens, UniProt P31749, E17K).
T1 construct: host or cells: HEK-293 (ATCC CRL-1573)
T1 sequence (P31749 whole entry E17K): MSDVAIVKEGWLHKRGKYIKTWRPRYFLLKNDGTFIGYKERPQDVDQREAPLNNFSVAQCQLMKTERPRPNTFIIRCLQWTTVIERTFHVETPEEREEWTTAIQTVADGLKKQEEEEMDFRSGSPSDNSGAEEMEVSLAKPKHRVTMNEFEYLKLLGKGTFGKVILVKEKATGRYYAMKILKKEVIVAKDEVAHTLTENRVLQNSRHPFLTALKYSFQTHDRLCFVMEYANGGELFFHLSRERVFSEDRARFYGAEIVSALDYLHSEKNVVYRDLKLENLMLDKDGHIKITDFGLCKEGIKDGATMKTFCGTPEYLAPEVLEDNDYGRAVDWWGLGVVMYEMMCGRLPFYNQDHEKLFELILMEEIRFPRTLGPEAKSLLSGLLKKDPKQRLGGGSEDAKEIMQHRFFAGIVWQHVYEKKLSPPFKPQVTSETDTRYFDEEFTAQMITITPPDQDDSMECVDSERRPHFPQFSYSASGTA
The assay is described as follows: NanoBRET Target Engagement (TE) Assay. In kind it is cell-based. As to conditions: competitive displacement of tracer in cells, read-out: AKT1 E17K IC50. The text has this:
The NanoBRET™ Target Engagement (TE) Intracellular Kinase Assays are based on the NanoBRET™ System (Promega Corporation), an energy transfer technique designed to measure molecular proximity in living cells. The NanoBRET™ TE Assays measure the apparent affinity of test compounds by competitive displacement of the NanoBRET™ tracer compound, which is a cell permeable molecule engineered to be reversibly bound to a NanoLuc® luciferase-kinase fusion expressed in cells. For compound screening, when a test compound binds to the selected kinase, the BRET signal is attenuated. […] All cells were evaluated for viability prior to transfection and optimization of the transfection was done prior to experimentation. […] Following transfection, cells were washed and resuspended in Opti-MEM. NanoBRET assays were performed in white, 384-well plates (Corning) at a density of […]. All example compounds were prepared as concentrated stock solutions in DMSO (Sigma-Aldrich). Compounds are dissolved in DMSO to make 10 mM stock solution. […] A Labcyte ECHO 550 compound dispenser was used to facilitate compound transfer directly to cells. Cells were equilibrated for 2 hr with energy transfer probes and example compound prior to BRET measurements. […] For target engagement analysis, the energy transfer probes were added to the cells at concentrations optimized for the target in question (AKT E17K). Following compound incubation, NanoBRET NanoGlo Substrate (Promega Cat #N157D) and Extracellular Nanoluc Inhibitor (Promega Cat #N235C) was added according to the manufacturer's recommended protocol, and luminescence was measured on Envision Reader (Perkin Elmer) Multimode Luminometer equipped with 450 nm BPfilter (donor) and 600 nm LPfilter (acceptor), using 0.5 s integration time. Milli-BRET units (mBU) are calculated by multiplying the raw BRET values by 1000. Apparent tracer affinity values (EC50) were determined using the sigmoidal dose-response (variable slope).
Competitive displacement data were then plotted and data were fit to determine the EC50 value for each example compound.
Background: Bioluminescence resonance energy transfer reports proximity on the nanometre scale.
Consider `Cc1ncn(-c2ccc3nc(-c4cccnc4N)n(-c4ccc(CN5CCC(Nc6ccnc(C#N)n6)CC5)cc4)c3n2)n1` [Example 589, 4-((1-(4-(2-(2-aminopyridin-3-yl)-5-(3-methyl-1H-1,2,4-triazol-1-yl)-3H-imidazo[4,5-b]pyridin-3-yl)benzyl)piperidin-4-yl)amino)pyrimidine-2-carbonitrile], for which the concentration for half-maximal inhibition (IC50) – broadly, the point on the concentration scale where inhibition reaches its midpoint – is 15 to 60 nM. Regarding `COc1ccncc1-c1ccc2nc(-c3cccnc3N)n(-c3ccc(CN4CCC(Nc5ccnc(C#N)n5)CC4)cc3)c2n1` [Example 536, 4-((1-(4-(2-(2-Aminopyridin-3-yl)-5-(4-methoxypyridin-3-yl)-3H-imidazo[4,5-b]pyridin-3-yl)benzyl)piperidin-4-yl)amino)pyrimidine-2-carbonitrile], the IC50 was < 15 nM.

On to `CN1CCCN(c2ccc3nc(-c4cccnc4N)n(-c4ccc(CN5CCN(c6ccnc(C#N)n6)CC5)cc4)c3n2)CC1=O` [Example 386, 4-(4-(4-(2-(2-Aminopyridin-3-yl)-5-(4-methyl-3-oxo-1,4-diazepan-1-yl)-3H-imidazo[4,5-b]pyridin-3-yl)benzyl)piperazin-1-yl)pyrimidine-2-carbonitrile], for which the IC50 was 15 to 60 nM.

For the compound `N#Cc1ncnc(NC2CCN(Cc3ccc(-n4c(-c5cccnc5N)nc5ccc(-c6ccc(Cl)cc6)nc54)cc3)CC2)n1` [Example 382, 4-((1-(4-(2-(2-Aminopyridin-3-yl)-5-(4-chlorophenyl)-3H-imidazo[4,5-b]pyridin-3-yl)benzyl)piperidin-4-yl)amino)-1,3,5-triazine-2-carbonitrile], the IC50 lay within 15 to 60 nM. On the same count and under the same terms, to `Cn1cc(-c2ccc3nc(-c4cccnc4N)n(-c4ccc(CN5CCN(c6nccc(C#N)n6)CC5)cc4)c3n2)ccc1=O` [Example 354, 2-(4-(4-(2-(2-Aminopyridin-3-yl)-5-(1-methyl-6-oxo-1,6-dihydropyridin-3-yl)-3H-imidazo[4,5-b]pyridin-3-yl)benzyl)piperazin-1-yl)pyrimidine-4-carbonitrile] belongs 60 to 600 nM; to `N#Cc1nccc(N2CCN(Cc3ccc(-n4c(-c5cccnc5N)nc5ccc(C6=CCCCC6)nc54)cc3)CC2)n1` [Example 329, 4-(4-(4-(2-(2-Aminopyridin-3-yl)-5-(cyclohex-1-en-1-yl)-3H-imidazo[4,5-b]pyridin-3-yl)benzyl)piperazin-1-yl)pyrimidine-2-carbonitrile], 15 to 60 nM; to `C=Cc1ccc2nc(-c3cccnc3N)n(-c3ccc(CN4CCC(Nc5ccnc(C#N)n5)CC4)cc3)c2n1` [Example 454, 4-((1-(4-(2-(2-Aminopyridin-3-yl)-5-vinyl-3H-imidazo[4,5-b]pyridin-3-yl)benzyl)piperidin-4-yl)amino)pyrimidine-2-carbonitrile], < 15 nM.

As for `N#Cc1nccc(NC2CCN(Cc3ccc(-n4c(-c5cncnc5N)nc5ccc(-c6ccc(F)cn6)nc54)cc3)CC2)n1` [Example 573, 4-((1-(4-(2-(4-Aminopyrimidin-5-yl)-5-(5-fluoropyridin-2-yl)-3H-imidazo[4,5-b]pyridin-3-yl)benzyl)piperidin-4-yl)amino)pyrimidine-2-carbonitrile], the IC50 was in the range of 15 to 60 nM. For the compound `N#Cc1nccc(NC2CCN(Cc3ccc(-n4c(-c5cccnc5N)nc5ccc(-c6ccc(F)c(O)c6)nc54)cc3)CC2)n1` [Example 545, 4-((1-(4-(2-(2-Aminopyridin-3-yl)-5-(4-fluoro-3-hydroxyphenyl)-3H-imidazo[4,5-b]pyridin-3-yl)benzyl)piperidin-4-yl)amino)pyrimidine-2-carbonitrile], the IC50 is < 15 nM. Same read-out and setting: to `N#Cc1nccc(N2CCC3(CCN(Cc4ccc(-n5c(-c6cccnc6N)nc6ccc(-c7ccccc7)nc65)cc4)CC3)CC2)n1` [Example 364, 4-(9-(4-(2-(2-Aminopyridin-3-yl)-5-phenyl-3H-imidazo[4,5-b]pyridin-3-yl)benzyl)-3,9-diazaspiro[5.5]undecan-3-yl)pyrimidine-2-carbonitrile] belongs 15 to 60 nM; to `N#Cc1nccc(N2CCN(Cc3ccc(-n4c(-c5cccnc5N)nc5ccc(-c6ccccc6Cl)nc54)cc3)CC2)n1` [Example 324, 4-(4-(4-(2-(2-Aminopyridin-3-yl)-5-(2-chlorophenyl)-3H-imidazo[4,5-b]pyridin-3-yl)benzyl)piperazin-1-yl)pyrimidine-2-carbonitrile], < 15 nM.

The assay is the same for the next values; noted with them: competitive tracer displacement in living cells, read-out: AKT1 E17K IC50.
`N#Cc1cc(C(=O)NC2CCN(Cc3ccc(-n4c(-c5cccnc5N)nc5ccc(-c6ccccc6)nc54)cc3)CC2)ccn1` [Example 55, N-(1-(4-(2-(2-Aminopyridin-3-yl)-5-phenyl-3H-imidazo[4,5-b]pyridin-3-yl)benzyl)piperidin-4-yl)-2-cyanoisonicotinamide]: the IC50 is 15 to 60 nM.

As for `N#Cc1ncnc(N2CCN(Cc3ccc(-n4c(-c5cccnc5N)nc5ccc(-c6ccccc6F)nc54)cc3)CC2)n1` [Example 312, 4-(4-(4-(2-(2-Aminopyridin-3-yl)-5-(2-fluorophenyl)-3H-imidazo[4,5-b]pyridin-3-yl)benzyl)piperazin-1-yl)-1,3,5-triazine-2-carbonitrile], the IC50 is < 15 nM. On the same count and under the same terms, to `N#Cc1cccc(OC2CCN(Cc3ccc(-n4c(-c5cccnc5N)nc5cc(-c6ccccc6)cnc54)cc3)CC2)n1` [Example 10, 6-((1-(4-(2-(2-Aminopyridin-3-yl)-6-phenyl-3H-imidazo[4,5-b]pyridin-3-yl)benzyl)piperidin-4-yl)oxy)picolinonitrile] belongs 600 to 10000 nM. Same read-out and setting: to `N#Cc1ncnc(N2CCC3(CCN(Cc4ccc(-n5c(-c6cccnc6N)nc6ccc(-c7ccccc7)nc65)cc4)C3)C2)n1` (centres unmarked) [Example 251, 4-(7-(4-(2-(2-aminopyridin-3-yl)-5-phenyl-3H-imidazo[4,5-b]pyridin-3-yl)benzyl)-2,7-diazaspiro[4.4]nonan-2-yl)-1,3,5-triazine-2-carbonitrile] belongs < 15 nM; to `N#Cc1cnnc(N2CCN(Cc3ccc(-n4c(-c5cccnc5N)nc5ccc(-c6ccccc6)nc54)cc3)CC2)c1` [Example 53, 6-(4-(4-(2-(2-Aminopyridin-3-yl)-5-phenyl-3H-imidazo[4,5-b]pyridin-3-yl)benzyl)piperazin-1-yl)pyridazine-4-carbonitrile], 60 to 600 nM. On the same count and under the same terms, to `C[C@H]1CN(Cc2ccc(-n3c(-c4cccnc4N)nc4ccc(-c5ccccc5)nc43)cc2)C[C@H](C)N1c1cc(C#N)ncn1` [Example 194, 6-((2S,6S)-4-(4-(2-(2-Aminopyridin-3-yl)-5-phenyl-3H-imidazo[4,5-b]pyridin-3-yl)benzyl)-2,6-dimethylpiperazin-1-yl)pyrimidine-4-carbonitrile] belongs 60 to 600 nM; to `N#Cc1cncc(N2CCN(Cc3ccc(-n4c(-c5cccnc5N)nc5cccnc54)cc3)CC2)c1` [Example 16, 5-(4-(4-(2-(2-Aminopyridin-3-yl)-3H-imidazo[4,5-b]pyridin-3-yl)benzyl)piperazin-1-yl)nicotinonitrile], 600 to 10000 nM; to `N#Cc1cnccc1C(=O)N1CCN(Cc2ccc(-n3c(-c4cccnc4N)nc4cccnc43)cc2)CC1` [Example 154, 4-(4-(4-(2-(2-Aminopyridin-3-yl)-3H-imidazo[4,5-b]pyridin-3-yl)benzyl)piperazine-1-carbonyl)nicotinonitrile], 600 to 10000 nM.

Take `N#Cc1cccc(NC2CCN(Cc3ccc(-n4c(-c5cccnc5N)nc5ccc(-c6ccccc6)nc54)cc3)CC2)n1` [Example 86, 6-((1-(4-(2-(2-Aminopyridin-3-yl)-5-phenyl-3H-imidazo[4,5-b]pyridin-3-yl)benzyl)piperidin-4-yl)amino)picolinonitrile]: the IC50 was in the range of 60 to 600 nM. Still for that read-out and setting: to `N#Cc1nccc(NC2CCN(Cc3ccc(-n4c(-c5cccnc5N)nc5ccc(-c6ccccc6Cl)nc54)cc3)CC2)n1` [Example 305, 4-((1-(4-(2-(2-Aminopyridin-3-yl)-5-(2-chlorophenyl)-3H-imidazo[4,5-b]pyridin-3-yl)benzyl)piperidin-4-yl)amino)pyrimidine-2-carbonitrile] belongs < 15 nM; to `Cc1ccc2nc(-c3cccnc3N)n(-c3ccc(CN4CCC(Nc5ccnc(C#N)n5)CC4)cc3)c2n1` [Example 280, 4-((1-(4-(2-(2-Aminopyridin-3-yl)-5-methyl-3H-imidazo[4,5-b]pyridin-3-yl)benzyl)piperidin-4-yl)amino)pyrimidine-2-carbonitrile], < 15 nM. With `N#Cc1cncnc1C(=O)N1CCN(Cc2ccc(-n3c(-c4cccnc4N)nc4ccc(-c5ccccc5)nc43)cc2)CC1` [Example 72, 4-(4-(4-(2-(2-Aminopyridin-3-yl)-5-phenyl-3H-imidazo[4,5-b]pyridin-3-yl)benzyl)piperazine-1-carbonyl)pyrimidine-5-carbonitrile], the IC50 lay within 600 to 10000 nM.

The record behind these values is US12209087B2, “AKT1 modulators” (Alterome Therapeutics, Inc., priority 2022, dated 2025).
